Series [1] is described as follows: Pharmacokinetic Assay, single oral dose 100 mg/kg (Table 11). The class given is in vivo. The note with it: mouse, C57 female mice, oral (intragastric), plasma. As for the experimental part:
Adult C57 female mice were received to single-dose of the test compounds with […], 10% Kolliphor^@HS 15 and 80% saline as excipients, the mice (n=9) were giving oral administration (intragastric administration) with the compounds at a dose of 100 mg/kg. Time of blood collection: 15 min, 30 min, 1 h, 2 h, 4 h, 7 h, 24 h. Approximately 0.1 mL of whole blood was collected from retro-orbital venous plexus of 3 mice at each time point, and placed into tubes that contained K2-EDTA as an anticoagulant. The whole blood was centrifuged at 4° C. and 4000 rpm for 10 min. The plasma was transferred into centrifuge tubes, and stored at −20° C. until being analyzed. Concentrations of test compounds in the plasma samples were analyzed with liquid chromatography-tandem mass spectrometry (LC-MS/MS). Plasma concentration-time data of individual animals was analyzed using Microsoft Excel 2010. Non-compartmental model was introduced in concentration analysis. The pharmacokinetic parameters of the test compounds were calculated using WinNonlin (version 4.1; Pharsight) software.

Series [2] is described as follows: Pharmacokinetic Assay, single oral dose 5 mg/kg (Table 12). The format is in vivo. The following applies: mouse, plasma concentration, C57 female mice, single oral dose 5 mg/kg. The essentials: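 Adult female C57 mice (n=3) got one intragastric dose of 5 mg/kg in 15% DMSO, 10% Kolliphor HS 15, 75% saline. Retro-orbital blood was taken at 30 min, 2 h and 4 h into K2-EDTA. Plasma levels were measured by LC-MS/MS.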

A further series has as its target PD-1/PD-L1 (Homo sapiens (Human), UniProt Q9NZQ7). The series can be described thus: PD-1/PD-L1 Binding Assay (Alphascreen). In a few lines: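 PD-1/PD-L1 binding detected by anti-6×His acceptor and streptavidin donor beads after 120 min in the dark at 25 °C. Beforehand, the two proteins were incubated 15 min at 25 °C with inhibitor at 0.015–300 nM (1% DMSO). IC50 comes from a log concentration–response curve.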

Chain of PD-1/PD-L1 (Q9NZQ7 19-238): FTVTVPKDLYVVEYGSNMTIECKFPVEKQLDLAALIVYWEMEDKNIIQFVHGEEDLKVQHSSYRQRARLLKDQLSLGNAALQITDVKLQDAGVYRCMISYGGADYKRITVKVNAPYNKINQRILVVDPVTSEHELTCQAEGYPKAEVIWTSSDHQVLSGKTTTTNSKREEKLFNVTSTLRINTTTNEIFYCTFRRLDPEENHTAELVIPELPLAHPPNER

Turning to `Cc1c(-c2nc3cc(CN4CC(C)(C)C4)c(OC(F)F)cc3o2)cccc1-c1cccc(-c2nc3cc(CN4CCC[C@H]4C(=O)O)c(OC(F)F)cc3o2)c1C` [Example 34, ((6-(difluoromethoxy)-2-(3′-(6-(difluoromethoxy)-5-((3,3-dimethylazetidin-1-yl)methyl)benzo[d]oxazol-2-yl)-2,2′-dimethyl-[1,1′-biphenyl]-3-yl)benzo[d]oxazol-5-yl)methyl)-L-proline], in series [1], the AUC was 56100 ng·h/mL, the Cmax was 4260 ng/mL, the Tmax was 4 h and the half-life is 419 min. Moreover, the concentration at 0.5 h in series [2] (0.5 h) was found to be 46.8 ng/mL. In series [2] (2 h), this compound registered a concentration at 2 h of 136 ng/mL. This compound also displayed a concentration at 4 h in series [2] (4 h) of 154 ng/mL. In addition, on PD-1/PD-L1 (numeric values), the IC50 is 1.3 nM.
With `Cc1c(-c2nc3cc(CN4CCC[C@H]4C(=O)O)c(OC(F)F)cc3o2)cccc1-c1cccc(-c2nc3cc(CN4CC(C)(C)C4)cc(C(F)(F)F)c3o2)c1C` [Example 93, ((6-(difluoromethoxy)-2-(3′-(5-((3,3-dimethylazetidin-1-yl)methyl)-7-(trifluoromethyl)benzo[d]oxazol-2-yl)-2,2′-dimethyl-[1,1′-biphenyl]-3-yl)benzo[d]oxazol-5-yl)methyl)-L-proline], in series [1], the AUC was 163000 ng·h/mL, the highest concentration (Cmax) stood at 9220 ng/mL and the Tmax amounted to 4 h. For the same compound, at PD-1/PD-L1 (range symbols), the IC50 lay in the range of 0.1 to 5 nM.
Regarding `Cc1c(-c2nc3cc(CN4CCC4C)c(OC(F)F)cc3o2)cccc1-c1cccc(-c2nc3cc(CN4CCC[C@H]4C(=O)O)c(OC(F)F)cc3o2)c1C` (stereo partly drawn) [Example 36, ((6-(difluoromethoxy)-2-(3′-(6-(difluoromethoxy)-5-((2-methylazetidin-1-yl)methyl)benzo[d]oxazol-2-yl)-2,2′-dimethyl-[1,1′-biphenyl]-3-yl)benzo[d]oxazol-5-yl)methyl)-L-proline], in series [1], the AUC came to 21400 ng·h/mL, the Cmax is 1670 ng/mL, the Tmax amounted to 1 h and the half-life is 496 min. The same compound had an IC50 at PD-1/PD-L1 (numeric values) of 1.1 nM.
As for `Cc1c(-c2nc3cc(CN4CCC(C)C4)c(OC(F)F)cc3o2)cccc1-c1cccc(-c2nc3cc(CN4CCC[C@H]4C(=O)O)c(OC(F)F)cc3o2)c1C` (stereo partly drawn) [Example 61, ((6-(difluoromethoxy)-2-(3′-(6-(difluoromethoxy)-5-((3-methylpyrrolidin-1-yl)methyl)benzo[d]oxazol-2-yl)-2,2′-dimethyl-[1,1′-biphenyl]-3-yl)benzo[d]oxazol-5-yl)methyl)-L-proline], in series [1], the AUC was found to be 118000 ng·h/mL, the Cmax amounted to 8650 ng/mL, the Tmax turned out to be 4 h and the half-life was 322 min. This compound had an IC50 at PD-1/PD-L1 (numeric values) of 1.6 nM.
The matching figures for `COC[C@@H]1CCCN1Cc1cc2nc(-c3cccc(-c4cccc(-c5nc6cc(CN7CCC[C@H]7C(=O)O)c(OC(F)F)cc6o5)c4C)c3C)oc2cc1OC(F)F` [Example 63, ((6-(difluoromethoxy)-2-(3′-(6-(difluoromethoxy)-5-(((S)-2-(methoxymethyl)pyrrolidin-1-yl)methyl)benzo[d]oxazol-2-yl)-2,2′-dimethyl-[1,1′-biphenyl]-3-yl)benzo[d]oxazol-5-yl)methyl)-L-proline]: 43700 ng·h/mL, 2920 ng/mL, 1 h, 348 min and 5.7 nM.
The matching figures for `Cc1c(-c2nc3cc(CN4CCC4)c(OC(F)F)cc3o2)cccc1-c1cccc(-c2nc3cc(CN4CCC[C@H]4C(=O)O)c(OC(F)F)cc3o2)c1C` [Example 8, ((2-(3′-(5-(azetidin-1-ylmethyl)-6-(difluoromethoxy)benzo[d]oxazol-2-yl)-2,2′-dimethyl-[1,1′-biphenyl]-3-yl)-6-(difluoromethoxy)benzo[d]oxazol-5-yl)methyl)-L-proline]: 8240 ng·h/mL, 974 ng/mL, 4 h, 238 min and 0.75 nM.
Regarding `Cc1c(-c2nc3cc(CNC[C@@H]4CCCO4)c(OC(F)F)cc3o2)cccc1-c1cccc(-c2nc3cc(CN4CCC[C@H]4C(=O)O)c(OC(F)F)cc3o2)c1C` [Example 64, ((6-(difluoromethoxy)-2-(3′-(6-(difluoromethoxy)-5-(((((S)-tetrahydrofuran-2-yl)methyl)amino)methyl)benzo[d]oxazol-2-yl)-2,2′-dimethyl-[1,1′-biphenyl]-3-yl)benzo[d]oxazol-5-yl)methyl)-L-proline], in series [1], the AUC is 61500 ng·h/mL, the peak level (Cmax) was 4320 ng/mL, the Tmax amounted to 7 h and the half-life is 432 min. The half-maximal inhibitory concentration (IC50) on PD-1/PD-L1 (numeric values) worked out at 1.8 nM.
As to `Cc1c(-c2nc3cc(CN4CCC[C@H]4C(=O)O)c(OC(F)F)cc3o2)cccc1-c1cccc(-c2nc3cc(CN4CCC[C@H]4C(=O)O)c(OC(F)F)cc3o2)c1C` [Example 2, (2′S)-(((2,2′-dimethyl-[1,1′-biphenyl]-3,3′-diyl)bis(6-(difluoromethoxy)benzo[d]oxazole-2,5-diyl))bis(methylene))di-L-proline], in series [1], the AUC was 271 ng·h/mL, the concentration peaked (Cmax) at 218 ng/mL, the Tmax is 0.5 h and the half-life is 198 min. Further, at PD-1/PD-L1 (numeric values), the IC50 was 0.2 nM.
The matching figures for `Cc1c(-c2nc3cc(CN4CC(N(C)C)C4)c(OC(F)F)cc3o2)cccc1-c1cccc(-c2nc3cc(CN4CCC[C@H]4C(=O)O)c(OC(F)F)cc3o2)c1C` [Example 33, ((6-(difluoromethoxy)-2-(3′-(6-(difluoromethoxy)-5-((3-(dimethylamino)azetidin-1-yl)methyl)benzo[d]oxazol-2-yl)-2,2′-dimethyl-[1,1′-biphenyl]-3-yl)benzo[d]oxazol-5-yl)methyl)-L-proline]: 8920 ng·h/mL, 727 ng/mL, 4 h, 660 min and 1.5 nM.
Taken in the same sequence, the figures for `Cc1c(-c2nc3cc(CN4CCC(O)C4)c(OC(F)F)cc3o2)cccc1-c1cccc(-c2nc3cc(CN4CCC[C@H]4C(=O)O)c(OC(F)F)cc3o2)c1C` (stereo partly drawn) [Example 14, ((6-(difluoromethoxy)-2-(3′-(6-(difluoromethoxy)-5-((3-hydroxypyrrolidin-1-yl)methyl)benzo[d]oxazol-2-yl)-2,2′-dimethyl-[1,1′-biphenyl]-3-yl)benzo[d]oxazol-5-yl)methyl)-L-proline] were 3450 ng·h/mL, 589 ng/mL, 1 h, 372 min and 1.2 nM.
Take `Cc1c(-c2nc3cc(CN4CCCC4)ccc3o2)cccc1-c1cccc(-c2nc3cc(CN4CCC[C@H]4C(=O)O)c(OC(F)F)cc3o2)c1C` [Example 98, ((6-(difluoromethoxy)-2-(2,2′-dimethyl-3′-(5-(pyrrolidin-1-ylmethyl)benzo[d]oxazol-2-yl)-[1,1′-biphenyl]-3-yl)benzo[d]oxazol-5-yl)methyl)-L-proline]: in series [1], the AUC turned out to be 8700 ng·h/mL, the concentration peaked (Cmax) at 1010 ng/mL, the Tmax worked out at 1 h and the half-life was 268 min. Further, the IC50 on PD-1/PD-L1 (range symbols) fell in the range of 0.1 to 5 nM.
For `CNCc1cc2nc(-c3cccc(-c4cccc(-c5nc6cc(CN7CCC[C@H]7C(=O)O)c(OC(F)F)cc6o5)c4C)c3C)oc2cc1OC(F)F` [Example 15, ((6-(difluoromethoxy)-2-(3′-(6-(difluoromethoxy)-5-((methylamino)methyl)benzo[d]oxazol-2-yl)-2,2′-dimethyl-[1,1′-biphenyl]-3-yl)benzo[d]oxazol-5-yl)methyl)-L-proline], in series [1], the AUC amounted to 5710 ng·h/mL, the Cmax came out at 931 ng/mL, the Tmax is 1 h and the half-life is 590 min. The compound further registered an IC50 on PD-1/PD-L1 (numeric values) of 0.5 nM.
The matching figures for `Cc1c(-c2nc3cc(CN4CC5(CC5)C4)c(OC(F)F)cc3o2)cccc1-c1cccc(-c2nc3cc(CN4CCC[C@H]4C(=O)O)c(OC(F)F)cc3o2)c1C` [Example 74, ((2-(3′-(5-((5-azaspiro [2.3]hexan-5-yl)methyl)-6-(difluoromethoxy)benzo[d]oxazol-2-yl)-2,2′-dimethyl-[1,1′-biphenyl]-3-yl)-6-(difluoromethoxy)benzo[d]oxazol-5-yl)methyl)-L-proline]: 59500 ng·h/mL, 4460 ng/mL, 4 h, 492 min and 1.1 nM.

The values above are taken from patent US12187713B2, “Immunomodulators, compositions and methods thereof” (Betta Pharmaceuticals Co., Ltd, priority 2019, dated 2025).
